C[C@H]1O[C@@H](O[C@H]2[C@@H](O)C[C@H](O[C@H]3[C@@H](O)C[C@H](O[C@H]4CC[C@@]5(C)[C@H](CC[C@@H]6[C@@H]5C[C@@H](O)[C@]5(C)[C@@H](C7=CC(=O)OC7)CC[C@]65O)C4)O[C@@H]3C)O[C@@H]2C)C[C@H](O)[C@@H]1O [digoxin]
bioavailability of digoxin is substantial for a period (from patches of Examples 2-4): at least 24 h | delivery from bioadhesive compositions (in words, Table I): delivered in a sustained fashion
